Laboratory results taken from ChEMBL document CHEMBL1201862, “PubChem BioAssay data set” (2004).
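Assay format: 96-well plates, 48-hour exposure. GI50 is the concentration that inhibits growth by half.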 Activity calls are given as the source filed them. Rule as the data show it: active = GI50 up to about 1.1 µM and inactive = higher.

Columns and labels:
Test in all cases: growth of human tumour cells (NCI), 48 h
[1] = test system: A498
[2] = test system: A549
[3] = test system: ACHN
[4] = test system: CCRF-CEM
[5] = test system: DMS-114
[6] = test system: DMS-273
[7] = test system: EKVX
[8] = test system: HCT-116
[9] = test system: HL-60
[10] = test system: HOP-62
[11] = test system: HOP-92
[12] = test system: HT-29
[13] = test system: IGROV-1
[14] = test system: KM12
[15] = test system: M14
[16] = test system: M19-MEL
[17] = test system: MOLT-4
[18] = test system: NCI-H23
[19] = test system: NCI-H460
[20] = test system: NCI-H522
[21] = test system: OVCAR-5
[22] = test system: OVCAR-8
[23] = test system: RXF 393
[24] = test system: RXF 631
[25] = test system: SF-268
[26] = test system: SF-295
[27] = test system: SK-MEL-28
[28] = test system: SK-OV-3
[29] = test system: SNB-19
[30] = test system: SNB-78
[31] = test system: SR
[32] = test system: TK-10
[33] = test system: U-251
[34] = test system: UACC-257
[35] = test system: UACC-62
[36] = test system: UO-31
[37] = test system: 786-0
[38] = test system: CAKI-1
[39] = test system: COLO 205
[40] = test system: DLD-1
[41] = test system: HCC 2998
[42] = test system: HCT-15
[43] = test system: HOP-18
[44] = test system: K562
[45] = test system: KM-20L2
[46] = test system: LOX IMVI
[47] = test system: LXFL 529
[48] = test system: Malme-3M
[49] = test system: NCI-H226
[50] = test system: OVCAR-3
[51] = test system: OVCAR-4
[52] = test system: RPMI-8226
[53] = test system: SF-539
[54] = test system: SK-MEL-2
[55] = test system: SK-MEL-5
[56] = test system: SN12C
[57] = test system: SNB-75
[58] = test system: SW-620
[59] = test system: XF498
[60] = test system: MCF7
[61] = test system: NCI/ADR-RES

CCC1=CC2CC(C(=O)OC)C1(N(C)C)C2=O (centres undefined)
GI50 [1]: > 100 µM (inactive)
GI50 [2]: > 100 µM (inactive)
GI50 [3]: > 100 µM (inactive)
GI50 [4]: > 100 µM (inactive)
GI50 [5]: > 100 µM (inactive)
GI50 [6]: > 100 µM (inactive)
GI50 [7]: > 100 µM (inactive)
GI50 [8]: > 100 µM (inactive)
GI50 [9]: > 100 µM (inactive)
GI50 [10]: > 100 µM (inactive)
GI50 [11]: > 100 µM (inactive)
GI50 [12]: > 100 µM (inactive)
GI50 [13]: > 100 µM (inactive)
GI50 [14]: > 100 µM (inactive)
GI50 [15]: > 100 µM (inactive)
GI50 [16]: > 100 µM (inactive)
GI50 [17]: > 100 µM (inactive)
GI50 [18]: > 100 µM (inactive)
GI50 [19]: > 100 µM (inactive)
GI50 [20]: > 100 µM (inactive)
GI50 [21]: > 100 µM (inactive)
GI50 [22]: > 100 µM (inactive)
GI50 [23]: > 100 µM (inactive)
GI50 [24]: > 100 µM (inactive)
GI50 [25]: > 100 µM (inactive)
GI50 [26]: > 100 µM (inactive)
GI50 [27]: > 100 µM (inactive)
GI50 [28]: > 100 µM (inactive)
GI50 [29]: > 100 µM (inactive)
GI50 [30]: > 100 µM (inactive)
GI50 [31]: > 100 µM (inactive)
GI50 [32]: > 100 µM (inactive)
GI50 [33]: > 100 µM (inactive)
GI50 [34]: > 100 µM (inactive)
GI50 [35]: > 100 µM (inactive)
GI50 [36]: > 100 µM (inactive)

CN(C)c1ccc(/C=c2\sc3nnc(-c4cccnc4)n3c2=O)cc1
GI50 [37]: > 100 µM (inactive)
GI50 [1]: > 100 µM (inactive)
GI50 [2]: > 100 µM (inactive)
GI50 [3]: > 100 µM (inactive)
GI50 [38]: > 100 µM (inactive)
GI50 [4]: > 100 µM (inactive)
GI50 [39]: > 100 µM (inactive)
GI50 [40]: > 100 µM (inactive)
GI50 [5]: > 100 µM (inactive)
GI50 [6]: > 100 µM (inactive)
GI50 [7]: > 100 µM (inactive)
GI50 [41]: > 100 µM (inactive)
GI50 [8]: > 100 µM (inactive)
GI50 [42]: > 100 µM
GI50 [9]: > 100 µM (inactive)
GI50 [43]: > 100 µM (inactive)
GI50 [10]: > 100 µM (inactive)
GI50 [11]: > 100 µM (inactive)
GI50 [13]: > 100 µM (inactive)
GI50 [44]: > 100 µM (inactive)
GI50 [45]: > 100 µM (inactive)
GI50 [14]: > 100 µM (inactive)
GI50 [46]: > 100 µM (inactive)
GI50 [47]: > 100 µM (inactive)
GI50 [15]: > 100 µM (inactive)
GI50 [16]: > 100 µM (inactive)
GI50 [17]: > 100 µM (inactive)
GI50 [48]: > 100 µM (inactive)
GI50 [49]: > 100 µM (inactive)
GI50 [18]: > 100 µM (inactive)
GI50 [19]: > 100 µM (inactive)
GI50 [20]: > 100 µM (inactive)
GI50 [50]: > 100 µM (inactive)
GI50 [51]: > 100 µM (inactive)
GI50 [21]: > 100 µM (inactive)
GI50 [22]: > 100 µM (inactive)
GI50 [52]: > 100 µM (inactive)
GI50 [23]: > 100 µM (inactive)
GI50 [25]: > 100 µM (inactive)
GI50 [26]: > 100 µM (inactive)
GI50 [53]: > 100 µM (inactive)
GI50 [27]: > 100 µM (inactive)
GI50 [54]: > 100 µM (inactive)
GI50 [55]: > 100 µM (inactive)
GI50 [28]: > 100 µM (inactive)
GI50 [56]: > 100 µM (inactive)
GI50 [29]: > 100 µM (inactive)
GI50 [57]: > 100 µM (inactive)
GI50 [30]: > 100 µM (inactive)
GI50 [58]: > 100 µM (inactive)
GI50 [32]: > 100 µM (inactive)
GI50 [33]: > 100 µM (inactive)
GI50 [34]: > 100 µM (inactive)
GI50 [35]: > 100 µM (inactive)
GI50 [36]: > 100 µM (inactive)
GI50 [59]: > 100 µM (inactive)

CCCCCCNC(=O)C(C)C1CCC2(C)C=CC(=O)C(C)=C2C1O (centres undefined)
GI50 [1]: > 100 µM (inactive)
GI50 [2]: > 100 µM (inactive)
GI50 [38]: > 100 µM (inactive)
GI50 [4]: > 100 µM (inactive)
GI50 [39]: > 100 µM (inactive)
GI50 [40]: > 100 µM (inactive)
GI50 [5]: 45.3 µM (inactive)
GI50 [6]: > 100 µM (inactive)
GI50 [7]: > 100 µM (inactive)
GI50 [41]: > 100 µM (inactive)
GI50 [8]: > 100 µM (inactive)
GI50 [42]: > 100 µM
GI50 [9]: > 64.4 µM (inactive)
GI50 [43]: > 100 µM (inactive)
GI50 [10]: > 100 µM (inactive)
GI50 [11]: 45.2 µM (inactive)
GI50 [12]: > 100 µM (inactive)
GI50 [13]: > 100 µM (inactive)
GI50 [44]: 68.5 µM (inactive)
GI50 [45]: > 100 µM (inactive)
GI50 [14]: > 88.1 µM (inactive)
GI50 [46]: > 100 µM (inactive)
GI50 [60]: > 100 µM (inactive)
GI50 [17]: > 75.2 µM (inactive)
GI50 [49]: > 100 µM (inactive)
GI50 [18]: > 94 µM (inactive)
GI50 [19]: > 100 µM (inactive)
GI50 [20]: 86.3 µM (inactive)
GI50 [61]: > 100 µM (inactive)
GI50 [50]: > 100 µM (inactive)
GI50 [51]: 96.8 µM (inactive)
GI50 [21]: 99.1 µM (inactive)
GI50 [22]: > 100 µM (inactive)
GI50 [52]: > 70.3 µM (inactive)
GI50 [23]: > 100 µM (inactive)
GI50 [25]: > 100 µM (inactive)
GI50 [26]: > 100 µM (inactive)
GI50 [53]: > 100 µM (inactive)
GI50 [27]: > 100 µM (inactive)
GI50 [54]: > 100 µM (inactive)
GI50 [55]: > 74.1 µM (inactive)
GI50 [28]: > 100 µM (inactive)
GI50 [56]: > 100 µM (inactive)
GI50 [29]: > 100 µM (inactive)
GI50 [57]: > 100 µM (inactive)
GI50 [30]: > 100 µM (inactive)
GI50 [58]: > 100 µM (inactive)
GI50 [33]: > 100 µM (inactive)
GI50 [34]: > 94.8 µM (inactive)
GI50 [35]: > 100 µM (inactive)
GI50 [36]: > 89.9 µM (inactive)
GI50 [59]: > 100 µM (inactive)

CC#CC1C(OC(=O)c2ccccc2)CCCC1(CI)N=[N+]=[N-] (centres undefined)
GI50 [37]: > 100 µM (inactive)
GI50 [1]: > 100 µM (inactive)
GI50 [2]: 58.6 µM (inactive)
GI50 [3]: > 100 µM (inactive)
GI50 [38]: > 100 µM (inactive)
GI50 [4]: 26.2 µM (inactive)
GI50 [39]: > 100 µM (inactive)
GI50 [40]: 52.1 µM (inactive)
GI50 [5]: 25.1 µM (inactive)
GI50 [6]: 38.7 µM (inactive)
GI50 [7]: 55.1 µM (inactive)
GI50 [41]: 90.2 µM (inactive)
GI50 [8]: 32.8 µM (inactive)
GI50 [42]: 45.2 µM
GI50 [9]: 15.1 µM (inactive)
GI50 [43]: > 100 µM (inactive)
GI50 [10]: 94 µM (inactive)
GI50 [11]: 92.7 µM (inactive)
GI50 [12]: 40.6 µM (inactive)
GI50 [13]: > 100 µM (inactive)
GI50 [44]: 28.4 µM (inactive)
GI50 [45]: 60.7 µM (inactive)
GI50 [14]: 89.7 µM (inactive)
GI50 [47]: 36.4 µM (inactive)
GI50 [15]: 59.8 µM (inactive)
GI50 [16]: 48.5 µM (inactive)
GI50 [17]: 13.6 µM (inactive)
GI50 [48]: > 100 µM (inactive)
GI50 [49]: 84.3 µM (inactive)
GI50 [18]: 28.3 µM (inactive)
GI50 [19]: 60.7 µM (inactive)
GI50 [20]: 22.4 µM (inactive)
GI50 [50]: > 100 µM (inactive)
GI50 [51]: 60.1 µM (inactive)
GI50 [21]: > 100 µM (inactive)
GI50 [22]: 59.7 µM (inactive)
GI50 [52]: 18.5 µM (inactive)
GI50 [23]: 52 µM (inactive)
GI50 [25]: 67 µM (inactive)
GI50 [26]: 87.5 µM (inactive)
GI50 [53]: > 100 µM (inactive)
GI50 [54]: 75 µM (inactive)
GI50 [55]: 19.5 µM (inactive)
GI50 [28]: > 100 µM (inactive)
GI50 [56]: > 100 µM (inactive)
GI50 [57]: > 100 µM (inactive)
GI50 [30]: > 100 µM (inactive)
GI50 [31]: 17.5 µM (inactive)
GI50 [58]: > 100 µM (inactive)
GI50 [32]: > 100 µM (inactive)
GI50 [33]: 59.7 µM (inactive)
GI50 [34]: 38.2 µM (inactive)
GI50 [35]: > 100 µM (inactive)
GI50 [36]: 56.5 µM (inactive)
GI50 [59]: 20.1 µM (inactive)
